According to ChEMBL document CHEMBL3885881, “DrugMatrix”:

Species on record: Rattus norvegicus
Assay: DrugMatrix - Regimen: Daily Repeat
Type: toxicity, organism-based, Sprague-Dawley
Set-up: regimen Daily Repeat, gender Male, age 6-8 weeks
Conditions: in vivo, po, route oral GAVAGE, vehicle .5 % CMC; for ABSOLUTE BASOPHIL / ABSOLUTE EOSINOPHIL / ABSOLUTE LYMPHOCYTE / ABSOLUTE MONOCYTE / ABSOLUTE SEGMENTED NEUTROPHIL / BASOPHIL / EOSINOPHIL / ERYTHROCYTE COUNT / HEMATOCRIT / HEMOGLOBIN / LEUKOCYTE COUNT / LYMPHOCYTE / MEAN CORPUSCULAR HEMOGLOBIN / MEAN CORPUSCULAR HEMOGLOBIN CONCENTRATION / MEAN CORPUSCULAR VOLUME / MONOCYTE / NEUTROPHIL / NUCLEATED RED BLOOD CELLS / PLATELET COUNT: tissue Blood; for ALANINE AMINOTRANSFERASE / ALBUMIN / ALKALINE PHOSPHATASE / ASPARTATE AMINOTRANSFERASE / BLOOD UREA NITROGEN / CARBON DIOXIDE / CHLORIDE / CHOLESTEROL / CREATINE PHOSPHOKINASE / CREATININE / GLUCOSE / LACTATE DEHYDROGENASE / LIPASE / PHOSPHORUS / POTASSIUM / SODIUM / TOTAL BILIRUBIN / TOTAL PROTEIN / URIC ACID: tissue Plasma
[1] = 0.1 mg/kg, 120 h, dose level Low, time 5 day
[2] = […], 72 h, dose 1.1 mg/Kg, dose level High, time 3 day
[3] = […], 120 h, dose 1.1 mg/Kg, dose level High, time 5 day

Structure (SMILES): CCCN1C[C@H](CSC)C[C@@H]2c3cccc4[nH]cc(c34)C[C@H]21 [PERGOLIDE]
- ABSOLUTE BASOPHIL [1]: 0 CELLS/uL
- ABSOLUTE EOSINOPHIL [1]: 175 CELLS/uL
- ABSOLUTE LYMPHOCYTE [1]: 12836.67 CELLS/uL
- ABSOLUTE MONOCYTE [1]: 191.67 CELLS/uL
- ABSOLUTE SEGMENTED NEUTROPHIL [1]: 1130 CELLS/uL
- BASOPHIL [1]: 0%
- EOSINOPHIL [1]: 1%
- ERYTHROCYTE COUNT [1]: 6.04 x10E6/uL
- HEMATOCRIT [1]: 38.1%
- HEMOGLOBIN [1]: 14.47 G/DL
- LEUKOCYTE COUNT [1]: 14.33 x10E3/uL
- LYMPHOCYTE [1]: 89.67%
- MEAN CORPUSCULAR HEMOGLOBIN [1]: 24.1 pg
- MEAN CORPUSCULAR HEMOGLOBIN CONCENTRATION [1]: 38.07 G/DL
- MEAN CORPUSCULAR VOLUME [1]: 63.27 fL
- MONOCYTE [1]: 1.33%
- NEUTROPHIL [1]: 8%
- NUCLEATED RED BLOOD CELLS [1]: 0 /100WBC
- PLATELET COUNT [1]: 1209 x10E3/uL
- ALANINE AMINOTRANSFERASE [1]: 50.33 u/L
- ALBUMIN [1]: 4.13 G/DL
- ALKALINE PHOSPHATASE [1]: 348 u/L
- ASPARTATE AMINOTRANSFERASE [1]: 111.67 u/L
- BLOOD UREA NITROGEN [1]: 19.33 mg/dL
- CARBON DIOXIDE [1]: 24 mmol/L
- CHLORIDE [1]: 107 MEQ/L
- CHOLESTEROL [1]: 76.67 mg/dL
- CREATINE PHOSPHOKINASE [1]: 1319 u/L
- CREATININE [1]: 0.21 mg/dL
- GLUCOSE [1]: 156 mg/dL
- LACTATE DEHYDROGENASE [1]: 398.67 u/L
- LIPASE [1]: 10 u/L
- PHOSPHORUS [1]: 13.17 mg/dL
- POTASSIUM [1]: 6.18 MEQ/L
- SODIUM [1]: 145.93 MEQ/L
- TOTAL BILIRUBIN [1]: 0.2 mg/dL
- TOTAL PROTEIN [1]: 6.23 G/DL
- URIC ACID [1]: 2.13 mg/dL
- ABSOLUTE BASOPHIL [2]: 0 CELLS/uL
- ABSOLUTE EOSINOPHIL [2]: 0 CELLS/uL
- ABSOLUTE LYMPHOCYTE [2]: 11487 CELLS/uL
- ABSOLUTE MONOCYTE [2]: 388 CELLS/uL
- ABSOLUTE SEGMENTED NEUTROPHIL [2]: 1058.33 CELLS/uL
- BASOPHIL [2]: 0%
- EOSINOPHIL [2]: 0%
- ERYTHROCYTE COUNT [2]: 5.69 x10E6/uL
- HEMATOCRIT [2]: 36.2%
- HEMOGLOBIN [2]: 13.43 G/DL
- LEUKOCYTE COUNT [2]: 12.93 x10E3/uL
- LYMPHOCYTE [2]: 88.67%
- MEAN CORPUSCULAR HEMOGLOBIN [2]: 23.63 pg
- MEAN CORPUSCULAR HEMOGLOBIN CONCENTRATION [2]: 37.13 G/DL
- MEAN CORPUSCULAR VOLUME [2]: 63.6 fL
- MONOCYTE [2]: 3%
- NEUTROPHIL [2]: 8.33%
- NUCLEATED RED BLOOD CELLS [2]: 0 /100WBC
- PLATELET COUNT [2]: 1255.67 x10E3/uL
- ALANINE AMINOTRANSFERASE [2]: 71 u/L
- ALBUMIN [2]: 4.2 G/DL
- ALKALINE PHOSPHATASE [2]: 385.33 u/L
- ASPARTATE AMINOTRANSFERASE [2]: 116 u/L
- BLOOD UREA NITROGEN [2]: 16 mg/dL
- CARBON DIOXIDE [2]: 24.67 mmol/L
- CHLORIDE [2]: 104.67 MEQ/L
- CHOLESTEROL [2]: 68 mg/dL
- CREATINE PHOSPHOKINASE [2]: 406 u/L
- CREATININE [2]: 0.19 mg/dL
- GLUCOSE [2]: 157 mg/dL
- LACTATE DEHYDROGENASE [2]: 402.67 u/L
- LIPASE [2]: 10 u/L
- PHOSPHORUS [2]: 12.03 mg/dL
- POTASSIUM [2]: 6.59 MEQ/L
- SODIUM [2]: 145.53 MEQ/L
- TOTAL BILIRUBIN [2]: 0.2 mg/dL
- TOTAL PROTEIN [2]: 5.67 G/DL
- URIC ACID [2]: 1.73 mg/dL
- ABSOLUTE BASOPHIL [3]: 0 CELLS/uL
- ABSOLUTE EOSINOPHIL [3]: 64.33 CELLS/uL
- ABSOLUTE LYMPHOCYTE [3]: 14339 CELLS/uL
- ABSOLUTE MONOCYTE [3]: 275 CELLS/uL
- ABSOLUTE SEGMENTED NEUTROPHIL [3]: 888.33 CELLS/uL
- BASOPHIL [3]: 0%
- EOSINOPHIL [3]: 0.33%
- ERYTHROCYTE COUNT [3]: 6.31 x10E6/uL
- HEMATOCRIT [3]: 40.47%
- HEMOGLOBIN [3]: 15.03 G/DL
- LEUKOCYTE COUNT [3]: 15.57 x10E3/uL
- LYMPHOCYTE [3]: 92.33%
- MEAN CORPUSCULAR HEMOGLOBIN [3]: 23.77 pg
- MEAN CORPUSCULAR HEMOGLOBIN CONCENTRATION [3]: 37.23 G/DL
- MEAN CORPUSCULAR VOLUME [3]: 63.93 fL
- MONOCYTE [3]: 1.67%
- NEUTROPHIL [3]: 5.67%
- NUCLEATED RED BLOOD CELLS [3]: 0 /100WBC
- PLATELET COUNT [3]: 990.67 x10E3/uL
- ALANINE AMINOTRANSFERASE [3]: 44.33 u/L
- ALBUMIN [3]: 4.53 G/DL
- ALKALINE PHOSPHATASE [3]: 385.67 u/L
- ASPARTATE AMINOTRANSFERASE [3]: 82 u/L
- BLOOD UREA NITROGEN [3]: 17.33 mg/dL
- CARBON DIOXIDE [3]: 27.33 mmol/L
- CHLORIDE [3]: 108.33 MEQ/L
- CHOLESTEROL [3]: 76.67 mg/dL
- CREATINE PHOSPHOKINASE [3]: 501.67 u/L
- CREATININE [3]: 0.22 mg/dL
- GLUCOSE [3]: 154 mg/dL
- LACTATE DEHYDROGENASE [3]: 206.33 u/L
- LIPASE [3]: 9.33 u/L
- PHOSPHORUS [3]: 11.87 mg/dL
- POTASSIUM [3]: 6.29 MEQ/L
- SODIUM [3]: 147.9 MEQ/L
- TOTAL BILIRUBIN [3]: 0.23 mg/dL
- TOTAL PROTEIN [3]: 6.37 G/DL
- URIC ACID [3]: 1.63 mg/dL
